Data reported in PMC6753678, “Fueling Open Innovation for Malaria Transmission-Blocking Drugs: Hundreds of Molecules Targeting Early Parasite Mosquito Stages” (Frontiers in Microbiology, 2019).
Where two headings read alike, the source gives them in different places.

What was measured:
HepG2 cells [1] = experiment: HepG2 cytotoxicity assay
Procedure, shortened: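 Percent inhibition derived from fluorescent viability readout, normalised to DMSO (negative) and 50 μM doxorubicin (positive). Compound incubation lasted 48 h at 37°C, 5% CO2, with 2,500 HepG2 cells/well in MEM plus 10% FBS and 1% NEAA.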

[2] = system: P. falciparum late stage (stages IV-V) gametocytes; parameters: method as in Almela et al 2016; conditions: ref Almela et al 2016, read-out: Pf GCT ATP IC50, cited from earlier work
[3] = system: P. falciparum late stage (stages IV-V) gametocytes; experiment: P. falciparum late stage gametocyte ATP depletion assay (Pf GC-ATP); conditions: 1: YES; 0: NO; >10-fold selectivity over cytotoxicity
HepG2 cells [4] = conditions: ref Almela et al 2016, cited from earlier work; for HepG2 cytoxicity: reported with the Pf GCT ATP screen
[5] = system: P. falciparum female gametocytes; parameters: method as in Miguel-Blanco et al 2017; conditions: TCAMS screen comparison; ref Miguel-Blanco et al 2017; read-out: Pf FGAA IC50; cited from earlier work
[6] = system: 3D7-strain P. falciparum asexual parasites; experiment: P. falciparum asexual growth inhibition assay (Pf GIA); format: cell-based, Plasmodium falciparum; conditions: dose response confirmation; read-out: Pf asexual growth inhibition assays IC50
Procedure, shortened: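 Parasites at 0.25% parasitemia, 2% hematocrit in Albumax-supplemented RPMI were exposed to compounds in dose response for 72 h at 37°C under 5% CO2/5% O2. Viability was read as LDH activity (NBT/diaphorase, A650 after freeze-thaw). Percent inhibition was calculated against chloroquine and DMSO controls, mean of three biological replicates.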

[7] = system: P. berghei ookinete development; conditions: for % inhibition, Replicate A / % inhibition, Replicate B: primary screen at 1 μM
[8] = HepG2 cytotoxicity unified across screens, >25 set to 25.00
[9] = P. falciparum late stage gametocyte ATP assay, TCAMS screen
[10] = read-out: Pb ODA IC50, this manuscript
[11] = read-out: Pb Ookinete development assay IC50, dose response confirmation

Compound	Unified cytotox (HepG2 cells [1]; [8]) [µM]	IC50 [2, 9] [nM]	Is compound selective in assay? Pf GC-ATP active? [3]	also measured
CCCCCOc1ccc(C(=NC)N(CCCCC)CCCCC)c2ccccc12.I [TCMDC-137703]	6.30	890	0 (0: NO)	–
Fc1ccc(N(c2nc(-c3cc(F)cc(C(F)(F)F)c3)cs2)C2CCNCC2)cc1.O=C(O)C(F)(F)F [TCMDC-136656]	6.60	3280	0 (0: NO)	–
Cc1nc(-c2cccc(Nc3ccnc4cc(-c5nccs5)ccc34)c2)no1.Cl [TCMDC-138334]	7.62	300	1 (1: YES)	–
O=C(CC1CCCC1)N(Cc1ccc(-c2ccc(CNC3Cc4ccccc4C3)cc2)cc1)CC1CCCCN1.O=C(O)C(F)(F)F (centres unmarked) [TCMDC-141446]	6.47	1000	0 (0: NO)	–
COC(=O)c1sc(-c2ccc(Cl)cc2)cc1N(CCCN1CCC(N2CCCCC2)CC1)S(=O)(=O)c1ccc(C)cc1 [TCMDC-135561]	4.37	3360	0 (0: NO)	–
CCCCCCNC(=N)c1ccc(OCCCCCOc2ccc(C(=N)NCCCCCC)cc2)cc1.Cl [TCMDC-137619]	5.39	310	1 (1: YES)	–
COc1ccc(COc2cc(NCCCN)nc3ccccc23)cc1 [TCMDC-139286]	13.98	560	1 (1: YES)	–
Nc1cc(/C=C/c2ccc([N+](=O)[O-])s2)nc2ccccc12 [TCMDC-142296]	7.60	600	1 (1: YES)	–
CCc1c(CCNCCc2cccc(CCNCCc3ccc(OC)c(OC)c3CC)c2)ccc(OC)c1OC.Cl [TCMDC-132056]	4.11	550	0 (0: NO)	–
O=C(NCCCCN1CCC(c2c[nH]c3ccc(-c4ccccc4)cc23)CC1)c1ccc(-c2ccccc2)cc1.O=C(O)C(=O)O [TCMDC-139064]	9.40	1830	0 (0: NO)	–
CCc1c(CCNCCCC(C)CCNCCc2ccc(OC)c(OC)c2CC)ccc(OC)c1OC.Cl (centres unmarked) [TCMDC-132065]	6.00	450	1 (1: YES)	–
CCCCN1CCN(CCCCNc2c3ccccc3nc3ccccc23)CC1.Cl [TCMDC-137569]	12.68	1190	1 (1: YES)	–
CN1CCN(CCCN(Cc2ccc(-c3cccc(CNC4CCCC4)c3)cc2)C(=O)Nc2ccccc2)CC1.O=C(O)C(F)(F)F [TCMDC-140605]	14.26	180	1 (1: YES)	–
Cl.c1ccc2c(NCCCCCCNc3ccnc4ccccc34)ccnc2c1 [TCMDC-137913]	16.40	960	1 (1: YES)	–
O=C(COc1ccccc1)N(Cc1ccc(-c2ccc(CNC3Cc4ccccc4C3)cc2)cc1)C1CCNCC1.O=C(O)C(F)(F)F [TCMDC-141450]	7.80	990	0 (0: NO)	–
Cl.c1ccc2c(CNCCCN3CCN(CCCNCc4c5ccccc5cc5ccccc45)CC3)c3ccccc3cc2c1 [TCMDC-137909]	6.28	110	1 (1: YES)	–

Compound	Unified cytotox (HepG2 cells [1]; [8]) [µM]	IC50 [2, 9] [nM]	Is compound selective in assay? Pf GC-ATP active? [3]	also measured
CN(C)CCN(Cc1ccccc1-c1ccc(CNCCc2ccccc2)cc1)C(=O)NC1CCCCC1.O=C(O)C(F)(F)F [TCMDC-140626]	6.40	350	1 (1: YES)	–
C=C(C)Cn1cc(C2CCN(CCN3CCC(CNC(=O)c4ccc(-c5ccc(C#N)cc5)cc4)CC3)CC2)c2ccccc21 [TCMDC-138854]	3.70	2930	0 (0: NO)	–
CCN(CC)CCOc1ccc(C(O)(C#CC(O)(c2ccc(C)cc2)c2ccc(OCCN(CC)CC)cc2)c2ccc(C)cc2)cc1 (centres unmarked) [TCMDC-137198]	1.62	140	1 (1: YES)	–
CCc1c(CCNCCCCCCNCCc2ccc(OC)c(OC)c2C)ccc(OC)c1OC.Cl [TCMDC-132051]	7.75	770	1 (1: YES)	–
CCNCc1cccc(-c2ccc3ccnc(N)c3c2)c1 [TCMDC-136869]	12.50	1660	0 (0: NO)	–
Cc1cccc(-c2nc(Nc3ccncc3)c3cc(N(C)C)ccc3n2)n1 [TCMDC-135308]	25.00	2660	–	HepG2 cytoxicity (HepG2 cells [4]): >25 µM
CC(CCCCC(=O)Nc1ccc(CC(C)NCCc2cccc(Cl)c2)cc1)NCCc1cccc(Cl)c1 (centres unmarked) [TCMDC-139799]	6.59	1660	0 (0: NO)	–
O=C(O)C(F)(F)F.O=C(c1cccs1)N(Cc1cccc(-c2ccc(CNC3CCCC3)cc2)c1)C1CCN(Cc2ccccc2)CC1 [TCMDC-140567]	7.10	850	0 (0: NO)	–
COCCCNC(=S)NN=C(C)c1ccccn1 [TCMDC-137907]	17.00	160	1 (1: YES)	–
CN1CCN(CCCCNc2c3ccccc3nc3ccccc23)CC1 [TCMDC-137479]	3.39	1320	0 (0: NO)	–
CC(C)CNCc1cccc(-c2ccc(CN(CCCN3CCN(C)CC3)C(=O)/C=C/c3ccccc3)cc2)c1.O=C(O)C(F)(F)F [TCMDC-140545]	6.65	630	1 (1: YES)	–
Cc1ccc(Nc2nc(-c3ccccn3)cs2)nc1 [TCMDC-125854]	–	–	–	Unified cytotox (HepG2 cells [1]; HepG2 cytotoxicity unified across the three screens): 33.07 µM; IC50 ([2]; TCAMS screen comparison): 160 nM; IC50 [5]: 27.3 nM
COc1ccc2nc(-c3cccc(C)n3)nc(Nc3ccncc3)c2c1 [TCMDC-134670]	25.00	2510	–	HepG2 cytoxicity (HepG2 cells [4]): >25 µM
Nc1ncc(-c2ccc3nccc(-c4ccncc4)c3c2)cc1S(=O)(=O)N1CCOCC1 [TCMDC-134180]	25.00	6900	–	HepG2 cytoxicity (HepG2 cells [4]): >25 µM
CCC1=C(C[C@H]2NCCc3cc(OC)c(OC)cc32)C[C@H]2c3cc(OC)c(OC)cc3CCN2C1.Cl [TCMDC-131825]	–	–	–	IC50 [6]: 127 nM; % inhibition, Replicate A [7]: 90.26%; % inhibition, Replicate B [7]: 99.18%; IC50 [7, 10]: 370 nM; IC50 [7, 11]: 367 nM; IC50 [2]: 300 nM; HepG2 cytoxicity (Pf GCT ATP screen) (HepG2 cells [4]): >25 µM
Clc1ccc(Nc2nc(-c3ccccn3)cs2)nc1 [TCMDC-123885]	–	–	–	IC50 [6]: 1600 nM; % inhibition, Replicate A [7]: -3.14%; % inhibition, Replicate B [7]: 71.58%; IC50 [7, 10]: 3700 nM; IC50 [7, 11]: 3700 nM; IC50 [2]: 670 nM; HepG2 cytoxicity (Pf GCT ATP screen) (HepG2 cells [4]): 20.8 µM
